These results are taken from patent US7495027B2, “3-aryl-4-hydroxyfuranone compounds and the human and animal health use thereof” (Wyeth, priority 2003, dated 2009).

Values after ≈ are worked out from the molar mass of the structure shown. Some results are limits rather than exact numbers.

E. coli Enopyruvyl-UPD-N-acetylglucosamine reductase, Mur B, sequence (P08373 whole entry): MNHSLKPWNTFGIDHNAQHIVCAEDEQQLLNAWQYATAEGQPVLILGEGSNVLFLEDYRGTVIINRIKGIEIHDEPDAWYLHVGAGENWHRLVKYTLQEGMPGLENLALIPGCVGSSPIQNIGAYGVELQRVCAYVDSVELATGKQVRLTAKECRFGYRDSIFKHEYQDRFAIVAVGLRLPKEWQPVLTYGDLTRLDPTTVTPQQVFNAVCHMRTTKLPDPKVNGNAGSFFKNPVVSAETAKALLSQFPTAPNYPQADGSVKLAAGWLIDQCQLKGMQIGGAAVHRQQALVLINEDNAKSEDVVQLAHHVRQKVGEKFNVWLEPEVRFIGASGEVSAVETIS
E. coli UDP-N-acetylglucosamine enolpyruvoyl transferase, MurA, sequence (P0A749 whole entry): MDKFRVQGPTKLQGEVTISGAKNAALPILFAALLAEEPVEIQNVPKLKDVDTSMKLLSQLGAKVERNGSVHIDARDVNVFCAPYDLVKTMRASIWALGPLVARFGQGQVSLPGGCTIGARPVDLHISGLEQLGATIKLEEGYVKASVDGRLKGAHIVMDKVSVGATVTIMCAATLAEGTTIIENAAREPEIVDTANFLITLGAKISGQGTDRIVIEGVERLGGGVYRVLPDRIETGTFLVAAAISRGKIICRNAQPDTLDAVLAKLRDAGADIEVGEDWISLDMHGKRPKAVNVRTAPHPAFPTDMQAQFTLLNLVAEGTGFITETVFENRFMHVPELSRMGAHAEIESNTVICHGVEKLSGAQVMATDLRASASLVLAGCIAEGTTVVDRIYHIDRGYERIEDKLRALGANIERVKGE

In one series the test system is enterococci. Briefly: Minimum inhibitory concentration, microdilution broth method, enterococci. It counts as cell-based. The settings on record: Enterococcus faecalis, E. faecalis GC 2242; Mueller-Hinton broth, 18-22 hours at 35° C.; read-out: MIC E. faecalis GC 2242. Summed up:
(§1)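 Broth microdilution MIC per NCCLS M7-A5. Staphylococci and enterococci tested in Mueller-Hinton broth; streptococci in Mueller-Hinton broth with 5% lysed horse blood. Strains include clinical isolates resistant to methicillin, penicillin and/or vancomycin.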
Usually MIC stands for the smallest concentration in the dilution series that meets the test's criterion for growth inhibition. Turning to `O=C1O/C(=C\c2cccc3ccccc23)C(O)=C1c1cccc(C(F)(F)F)c1` [Example 5], the MIC was found to be 8 µg/mL (≈ 20.9 µM).
Still for that read-out and setting: in the case of `COc1ccc(C2=C(O)/C(=C/c3cccc4ccccc34)OC2=O)cc1` [Example 6] it was 32 µg/mL (≈ 92.9 µM); in that of `COc1ccc(C2=C(O)/C(=C/c3ccc4ccccc4c3)OC2=O)cc1` [Example 7], 32 µg/mL (≈ 92.9 µM).

Staying with this series, now noted: Enterococcus faecalis, E. faecalis GC 4555; Mueller-Hinton broth, 18-22 hours at 35° C.; read-out: MIC E. faecalis GC 4555.
Turning to `O=C1O/C(=C\c2cccc3ccccc23)C(O)=C1c1cccc(C(F)(F)F)c1` [Example 5], the MIC came to 16 µg/mL (≈ 41.8 µM).
Take `COc1ccc(C2=C(O)/C(=C/c3cccc4ccccc34)OC2=O)cc1` [Example 6]: the minimum inhibitory concentration (MIC) is more than 128 µg/mL.
Same read-out and setting: in the case of `COc1ccc(C2=C(O)/C(=C/c3ccc4ccccc4c3)OC2=O)cc1` [Example 7] it was 64 µg/mL (≈ 186 µM).

Another series deals with Streptococci. Briefly: Minimum inhibitory concentration, microdilution broth method, streptococci. The format is cell-based. The settings on record: S. pneumo GC 1894; Mueller-Hinton broth with 5% horse blood, 18-22 hours at 35° C. The essentials: as §1
The compound `O=C1O/C(=C\c2cccc3ccccc23)C(O)=C1c1cccc(C(F)(F)F)c1` [Example 5] yielded an MIC of 0.5 µg/mL (≈ 1.31 µM).
In the case of `COc1ccc(C2=C(O)/C(=C/c3cccc4ccccc34)OC2=O)cc1` [Example 6], the MIC was found to be 8 µg/mL (≈ 23.2 µM).
The same measure, in the same setting: in the case of `COc1ccc(C2=C(O)/C(=C/c3ccc4ccccc4c3)OC2=O)cc1` [Example 7] it was 2 µg/mL (≈ 5.81 µM).

The target in a further series is E. coli Uridine-diphosphate-N-acetylmuramoyl-L-alanine: D-glutamate liease, MurD (Escherichia coli, UniProt P14900). Briefly: biochemical. Particulars: (E) E. coli enzyme. Summed up: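 Compound working solutions reach 100 μg/mL in 50 mM Tris/HCl (pH 8.5) after dilution of 10 mg/mL DMSO stocks; final level in the well not given here. Reaction buffer finals: 2 mM ATP, 50 mM MgCl2, 83 mM Tris/HCl, pH 8.0.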
E. coli Uridine-diphosphate-N-acetylmuramoyl-L-alanine: D-glutamate liease, MurD, sequence (P14900 whole entry): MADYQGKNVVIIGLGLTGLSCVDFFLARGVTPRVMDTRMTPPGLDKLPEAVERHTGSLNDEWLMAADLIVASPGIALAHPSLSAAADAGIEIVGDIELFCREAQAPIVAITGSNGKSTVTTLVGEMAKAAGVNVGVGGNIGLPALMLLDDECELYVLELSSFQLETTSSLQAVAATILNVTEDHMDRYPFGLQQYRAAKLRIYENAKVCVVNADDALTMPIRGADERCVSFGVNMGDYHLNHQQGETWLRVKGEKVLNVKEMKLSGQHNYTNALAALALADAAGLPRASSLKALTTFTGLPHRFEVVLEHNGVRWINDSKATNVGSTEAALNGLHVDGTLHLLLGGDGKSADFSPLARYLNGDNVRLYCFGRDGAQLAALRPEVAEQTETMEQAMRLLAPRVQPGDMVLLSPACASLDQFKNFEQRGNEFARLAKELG
A word on the IC50: it is the concentration that inhibits the measured activity by half. In turn, `COc1ccc(C2=C(O)/C(=C/c3cccc4ccccc34)OC2=O)cc1` [Example 6] came in with an IC50 of more than 72.6 µM.
`COc1ccc(C2=C(O)/C(=C/c3ccc4ccccc4c3)OC2=O)cc1` [Example 7] returned a half-maximal inhibitory concentration (IC50) of more than 72.6 µM.

In a further series the target is E. coli UDP-N-acetylglucosamine enolpyruvoyl transferase, MurA (Escherichia coli, UniProt P0A749). Briefly: biochemical. Particulars: (E) E. coli enzyme. Summed up:
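Enzyme in 50 mM Tris/HCl pH 8.0 with 5 mM DTT and 20% glycerol was pre-incubated 10 min at 37° C with test compound in DMSO/water. Tris/BME and assay buffer then started the 1 hr, 37° C reaction, with a baseline 340 nm reading taken at start. Stop solution followed, and colour developed 30 minutes.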
As to `COc1ccc(C2=C(O)/C(=C/c3cccc4ccccc34)OC2=O)cc1` [Example 6], the IC50 was more than 72.6 µM.
On to `COc1ccc(C2=C(O)/C(=C/c3ccc4ccccc4c3)OC2=O)cc1` [Example 7], for which the IC50 is more than 72.6 µM.

The target of the next series is E. coli Uridine-diphosphate-N-acetvimuramoyl: L-alanine lipase, MurC (Escherichia coli, UniProt P17952). Put plainly: Inhibitory activity against MurC (E. coli). The format is biochemical. The settings on record: (E) E. coli enzyme.
E. coli Uridine-diphosphate-N-acetvimuramoyl: L-alanine lipase, MurC, sequence (P17952 whole entry): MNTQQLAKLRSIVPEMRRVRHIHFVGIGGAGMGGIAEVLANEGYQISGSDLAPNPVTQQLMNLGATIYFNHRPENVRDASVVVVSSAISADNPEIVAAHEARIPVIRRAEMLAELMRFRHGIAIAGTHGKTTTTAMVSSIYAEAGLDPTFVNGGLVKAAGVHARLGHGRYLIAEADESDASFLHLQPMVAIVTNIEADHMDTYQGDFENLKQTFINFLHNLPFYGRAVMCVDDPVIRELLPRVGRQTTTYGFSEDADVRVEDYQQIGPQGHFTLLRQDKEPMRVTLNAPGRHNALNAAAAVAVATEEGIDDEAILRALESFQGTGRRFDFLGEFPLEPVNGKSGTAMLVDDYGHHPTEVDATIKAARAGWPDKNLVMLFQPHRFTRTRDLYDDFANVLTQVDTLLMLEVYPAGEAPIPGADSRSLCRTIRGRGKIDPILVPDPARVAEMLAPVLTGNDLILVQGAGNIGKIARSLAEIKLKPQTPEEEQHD
On to `O=C1O/C(=C\c2cccc3ccccc23)C(O)=C1c1cccc(C(F)(F)F)c1` [Example 5], for which the “MurC IC50” value is recorded as 6 (E) μg/mL.

Staying with this series, now noted: (E) E. coli enzyme; read-out: MurC IC50 (converted).
Take `COc1ccc(C2=C(O)/C(=C/c3cccc4ccccc34)OC2=O)cc1` [Example 6]: the concentration for half-maximal inhibition (IC50) is 46.5 µM.
Regarding `COc1ccc(C2=C(O)/C(=C/c3ccc4ccccc4c3)OC2=O)cc1` [Example 7], the IC50 was 37.8 µM.

System in a further series: not given
Assay: not given
Settings: not given
What is called melting point is the temperature of the solid-liquid transition. Turning to `COc1ccc(C2=C(O)/C(=C/c3ccc4ccccc4c3)OC2=O)cc1` [Example 7], the melting point lay within 257 to 258.5 °C.

The subject of a further series is staphylococci. Briefly: Minimum inhibitory concentration, microdilution broth method, staphylococci. It counts as cell-based. The settings on record: Staphylococcus aureus, S. aureus GC 1131; Mueller-Hinton broth, 18-22 hours at 35° C.; read-out: MIC S. aureus GC 1131. The essentials: as §1
(Dilution methods test growth across graded concentrations, often in twofold steps.)
As to `O=C1O/C(=C\c2cccc3ccccc23)C(O)=C1c1cccc(C(F)(F)F)c1` [Example 5], the MIC is 8 µg/mL (≈ 20.9 µM).
In the case of `COc1ccc(C2=C(O)/C(=C/c3cccc4ccccc34)OC2=O)cc1` [Example 6], the MIC was determined as 32 µg/mL (≈ 92.9 µM).
With `COc1ccc(C2=C(O)/C(=C/c3ccc4ccccc4c3)OC2=O)cc1` [Example 7], the MIC is 32 µg/mL (≈ 92.9 µM).

Staying with this series, now noted: Staphylococcus aureus, S. aureus GC 4543; Mueller-Hinton broth, 18-22 hours at 35° C.; read-out: MIC S. aureus GC 4543.
As for `O=C1O/C(=C\c2cccc3ccccc23)C(O)=C1c1cccc(C(F)(F)F)c1` [Example 5], the MIC was found to be 8 µg/mL (≈ 20.9 µM).
Regarding `COc1ccc(C2=C(O)/C(=C/c3cccc4ccccc34)OC2=O)cc1` [Example 6], the minimal inhibitory concentration (MIC) was determined as 64 µg/mL (≈ 186 µM).
On to `COc1ccc(C2=C(O)/C(=C/c3ccc4ccccc4c3)OC2=O)cc1` [Example 7], for which the MIC worked out at 64 µg/mL (≈ 186 µM).

Another series concerns the target E. coli Enopyruvyl-UPD-N-acetylglucosamine reductase, Mur B (Escherichia coli, UniProt P08373). Briefly: biochemical. Particulars: (E) E. coli enzyme.
`O=C1O/C(=C\c2cccc3ccccc23)C(O)=C1c1cccc(C(F)(F)F)c1` [Example 5]: the “MurB IC50” value came out at 8 µg/mL.

The same series, now with this note: (E) E. coli enzyme; read-out: MurB IC50 (converted).
As to `COc1ccc(C2=C(O)/C(=C/c3cccc4ccccc34)OC2=O)cc1` [Example 6], the IC50 was more than 72.6 µM.
As for `COc1ccc(C2=C(O)/C(=C/c3ccc4ccccc4c3)OC2=O)cc1` [Example 7], the IC50 was 61 µM.

For another series, the target named is T1, S. aureus Enopyruvyl-UPD-N-acetylglucosamine reductase, Mur B (Staphylococcus aureus, UniProt P61431).
T1 sequence (P61431 1-307): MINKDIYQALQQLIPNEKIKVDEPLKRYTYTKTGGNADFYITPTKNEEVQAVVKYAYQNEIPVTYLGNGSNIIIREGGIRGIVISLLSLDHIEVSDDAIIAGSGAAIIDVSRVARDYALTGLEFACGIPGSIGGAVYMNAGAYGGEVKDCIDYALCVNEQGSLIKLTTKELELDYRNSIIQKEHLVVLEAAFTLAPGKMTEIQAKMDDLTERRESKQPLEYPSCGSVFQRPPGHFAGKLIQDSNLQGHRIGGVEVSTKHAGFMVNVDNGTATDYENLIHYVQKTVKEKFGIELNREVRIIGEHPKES
Briefly: biochemical. Particulars: (S) S. aureus enzyme; read-out: MurB IC50 (converted).
In the case of `O=C1O/C(=C\c2cccc3ccccc23)C(O)=C1c1cccc(C(F)(F)F)c1` [Example 5], the IC50 is 15.7 µM.
For `COc1ccc(C2=C(O)/C(=C/c3cccc4ccccc34)OC2=O)cc1` [Example 6], the IC50 was 61 µM.
